Where two headings read alike, the source gives them in different places. Some results are limits rather than exact numbers.

For assay [1], the target named is T1, human recombinant dopamine D4.2 receptor subtype (Homo sapiens, UniProt P21917, DEL265-296).
T1 sequence (P21917 with tags, fused parts or gaps DEL265-296): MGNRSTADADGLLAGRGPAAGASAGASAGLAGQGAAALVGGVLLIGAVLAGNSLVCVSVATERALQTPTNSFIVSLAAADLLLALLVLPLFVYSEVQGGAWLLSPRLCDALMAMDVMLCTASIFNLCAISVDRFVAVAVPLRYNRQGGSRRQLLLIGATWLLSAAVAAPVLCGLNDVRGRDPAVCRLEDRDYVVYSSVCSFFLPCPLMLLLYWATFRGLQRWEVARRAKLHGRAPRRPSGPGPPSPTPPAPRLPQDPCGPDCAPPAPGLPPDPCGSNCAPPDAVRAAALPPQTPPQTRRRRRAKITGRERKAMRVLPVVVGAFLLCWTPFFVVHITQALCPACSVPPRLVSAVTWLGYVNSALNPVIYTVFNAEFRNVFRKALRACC
The assay can be described thus: Receptor binding assay, [3H]spiperone competition, D4.2. As to conditions: for D2/D4 Ratio: ratio of D2 Ki to D4 Ki. The protocol:
(§1) The D2 receptor cDNA was subcloned into an expression vector, pRc/CMV. The plasmids were transfected by electroporation into CHO K1 cells. A single stable transfectant, resistant to the antibiotic G418, was isolated and selected for use in the binding studies.
(§2) Cells were grown until confluent, after which growth medium was removed and replaced with 0.02% ethylene diamine tetracetate (EDTA) in a phosphate-buffered saline solution (Sigma Chemical Co., St. Louis, Missouri) and scraped from the flasks. The cells were centrifuged at about 1000 × g for 10 minutes at […] and then resuspended in TEM buffer (25 mM Tris-HCl, pH 7.4, 5 mM EDTA, and 6 mM MgCl2) for D2 or the D4.2 buffer (50 mM Tris-HCl, pH 7.4, 5 mM EDTA, 1.5 mM CaCl2, 5 mM KCl, and 120 mM NaCl) and homogenized. The membranes were pelleted by centrifugation at 20,000 × g at […] for 20 minutes. Then the pellets were resuspended in appropriate buffer at 1 mL/flask and stored at -70°C until used in the receptor binding assay.
(§3) After 60 minutes incubation at 25°C, the incubations were terminated by rapid filtration through Whatmann GF/B glass fibre filters (soaked for 1 hour in 0.5% polyethylenimine) on a -cell harvester, with three washes of 1 mL ice-cold buffer. Individual filter disks containing the bound ligand were placed in counting vials with 4 mL of scintillation fluid (Ready Gel, Beckman Instrument Inc., Fullerton, California) and then counted in a Beckman LS-6800 liquid scintillation counter at an efficiency of 45%. Nonspecific binding was defined in presence of […] of haloperidol.
(§4) Saturation and competition binding data were analyzed using an iterative nonlinear least-square curve-fitting Ligand program. […] Experimental compounds were made up as stock solutions in dimethyl sulfoxide (DMSO). […] Each observation was carried out in triplicate. To allow these calculations, Ki values were measured for the interaction of various ligands with the receptor. […]

Assay [2] concerns the target human dopamine D2 (Long form) receptors (Homo sapiens, UniProt P14416). Nature of the assay: Receptor binding assay, [3H]spiperone competition, D2. The protocol:
as §1, §2, §3, §4

[3] abbreviates: CHO K1 cell membranes, 0.2 nM [3H]spiperone, 60 minutes at 25°C, apparent Ki from IC50 by Cheng and Prusoff.
Setting [4] is: CHO K1 cell membranes, 0.2 nM [3H]spiperone, 60 minutes at 25°C, apparent Ki from IC50 by Cheng and Prusoff, read-out: D4 (Ki).

human dopamine D2 (Long form) receptors, sequence (P14416 whole entry): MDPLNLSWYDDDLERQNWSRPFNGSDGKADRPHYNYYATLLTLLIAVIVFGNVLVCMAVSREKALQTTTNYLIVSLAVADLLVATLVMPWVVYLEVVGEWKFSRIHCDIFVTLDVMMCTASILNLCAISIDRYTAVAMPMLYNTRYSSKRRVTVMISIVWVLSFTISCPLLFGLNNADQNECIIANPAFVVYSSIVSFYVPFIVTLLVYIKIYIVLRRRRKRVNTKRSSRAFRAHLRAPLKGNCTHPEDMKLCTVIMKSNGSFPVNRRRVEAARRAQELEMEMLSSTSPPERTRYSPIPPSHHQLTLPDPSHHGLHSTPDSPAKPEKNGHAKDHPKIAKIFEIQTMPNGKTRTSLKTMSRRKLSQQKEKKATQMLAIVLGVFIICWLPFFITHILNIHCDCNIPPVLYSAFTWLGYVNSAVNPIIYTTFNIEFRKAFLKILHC

As to `NS(=O)(=O)c1ccc(N2CCN(Cc3ccc4c(c3)NC(=O)CO4)CC2)cc1` [Example 4, 4-[4-(3-oxo-3,4-dihydro-2H-benzo[1,4]-oxazin-6-ylmethyl)-piperazin-1-yl]-benzenesulfonamide], the Ki in assay [1] (read-out: D4 (Ki)) was 23.6 nM.

For the compound `O=C1COc2ccc(CN3CCN(c4ccccc4)CC3)cc2N1` [Example 8, 6-[4-phenyl-piperazin-1-ylmethyl]-4H-benzo[1,4]oxazin-3-one], the Ki in assay [1] (read-out: D4 (Ki)) came to 18.3 nM.

Regarding `O=C1COc2cc(CN3CCN(c4ccccc4)CC3)ccc2N1` [Example 13, 7-(4-phenyl-piperazin-1-ylmethyl)-4H-benzo[1,4]oxazine-3-one], the Ki in assay [1] (read-out: D4 (Ki)) came out at 6.09 nM; in assay [2] (setting [3]), 129 nM.

In the case of `Cc1ccc(N2CCN(Cc3ccc4c(c3)OCC(=O)N4)CC2)cc1C` [Example 14, 7-[4-(3,4-dimethyl-phenyl)-piperazin-1-ylmethyl]-4H-benzo[1,4]oxazine-3-one], in assay [2] (setting [3]), the Ki is 346 nM.

Consider `Cc1ccc(C2CCN(Cc3ccc4c(c3)NC(=O)CO4)CC2)cc1` [Example 16, 6-(4-p-tolyl-piperidin-1-ylmethyl)-4H-benxo[1,4]oxazin-3-one], for which the Ki in assay [1] (setting [4]) is 2.84 nM.

Regarding `O=C1COc2ccc(CN3CCN(c4ccc(C(F)(F)F)cc4)CC3)cc2N1` [Example 31, 6-[4-(4-Trifluoromethyl-phenyl)-piperazin-l-ylmethyl] -4H-benzo[1,4]oxazin-3-one], in assay [1] (setting [4]), the Ki is 173 nM.

For the compound `O=C1COc2ccc(CN3CCN(c4ccc(Cl)cc4)CC3)cc2N1` [Example 32, 6-[4-(4-Chloro-phenyl)-piperazin-1-ylmethyl]-4H-benzo [1,4]oxazin-3-one], the Ki in assay [1] (read-out: D4 (Ki)) was found to be 62.5 nM.

Take `COc1ccc(N2CCN(Cc3ccc4c(c3)OCC(=O)N4)CC2)cc1` [Example 34, 7-[4-(4-Methoxy-phenyl)-piperazin-1-ylmethyl]-4H-benzo[1,4]oxazin-3-one]: the “D2/D4 Ratio” value in assay [1] came out at 1176.5. The results for the Ki in assay [1] (read-out: D4 (Ki)) and in assay [2] (setting [3]) were 5 nM and at least 5880 nM, respectively.

For `O=C1COc2cc(CN3CCN(c4ccc(Cl)cc4)CC3)ccc2N1` [Example 35, 7-[4-(4-Chloro-phenyl)-piperazin-1-ylmethyl]-4H-benzo[1,4]oxazin-3-one], in assay [1], the Ki stood at 4.68 nM and the “D2/D4 Ratio” value was 132.5. The compound also showed a Ki in assay [2] of 620 nM.

Consider `Cc1ccc(C2CCN(Cc3ccc4c(c3)OCC(=O)N4)CC2)cc1C` [Example 36, 7-[4-(3,4-Dimethyl-phenyl)-piperidin-1-ylmethyl]-4H-benzo[1,4]oxazin-3-one], for which the Ki in assay [1] (read-out: D4 (Ki)) stood at 2.61 nM; in assay [2] (setting [3]), 610 nM.

For the compound `COc1ccc(C2CCN(Cc3ccc4c(c3)NC(=O)CO4)CC2)cc1` [Example 37, 6-[4-(4-Methoxy-phenyl) -piperidin-1-ylmethyl]-4H-benzo[1,4]oxazin-3-one], in assay [2] (setting [3]), the Ki came to 698 nM.

With `COc1ccc(C2CCN(Cc3ccc4c(c3)OCC(=O)N4)CC2)cc1` [Example 38, 7-[4-(4-Methoxy-phenyl)-piperidin-1-ylmethyl]-4H-benzo[1,4]oxazin-3-one], the “D2/D4 Ratio” value in assay [1] was 168.1. The Ki worked out at 6.7 nM in assay [1] (read-out: D4 (Ki)) and 1130 nM in assay [2] (setting [3]).

Turning to `Cc1ccc(C2CCN(Cc3ccc4c(c3)OCC(=O)N4)CC2)cc1` [Example 41, 7-(4-p-Tolyl-piperidin-1-ylmethyl)-4H-benzo[1,4]oxazin-3-one], the “D2/D4 Ratio” value in assay [1] is on record as 110.5. Also, the figures for the Ki in assay [1] (read-out: D4 (Ki)) and in assay [2] (setting [3]) were 2.6 nM and 287 nM, respectively.
